According to patent US9994862B2, “Rice resistant to HPPD and ACCase inhibiting herbicides” (priority 2011, dated 2018):
Entries after “also recorded” stand apart in the source; their conditions may differ.

What was measured:
[1] = test system: common grass weeds, such as barnyard grass; assay: Grass weed control by ACCase herbicides in rice; format: in vivo; conditions: for control of common grass weeds in rice: in vivo
From the text: (§1) FIG. 5 illustrates grass weed control by the ACCase inhibitor quizalofop; control is shown by the prevalent grass weed (dead plants) being killed by quizalofop (77 gm ai/ha) while the resistant line ML0831265-01493 (live plants) were not injured.
Rice is tolerant to certain ACCase inhibitor herbicides, for example cyhalofop is registered for use in rice. However other ACCase herbicides kill or severely injure rice to varying degrees. […] The applied rates of both types of herbicides giving the weed control are well within the tolerance level of the respective ACCase and HPPD tolerant lines including the combined lines carrying tolerance to both HPPD and ACCase herbicides.

[2] = test system: line PL1214418M2-73009; assay: ACCase herbicide field trial; format: in vivo, rice; conditions: for tolerance to ACCase herbicide compared with donor line ML0831265-01493: 0.5x to 4x of label rate (fluazifop 210 gmai/ha, quizalofop 77 gmai/ha)
Procedure: FIG. 2 is a graphical representation of a trait tolerance trial; the trial rice were planted, quizalofop was applied at the indicated rates about 5 weeks later (initiating tillering); the rice was evaluated for the percent of injury or damage as compared to unsprayed rice four weeks after herbicide application; line ML0831265-01493 is the ACCase resistant line and R0146 and P1003 are control lines; the line PL1214418M2-73009 was selected out of a cross between the HPPD tolerant line ML0831266-03093 (parent is P1003) and the ACCase tolerant line ML0831265-01493 (parent is R0146).
(§2) Another trial was conducted to confirm recovery of the ACCase inhibitor resistance from the G2096S mutation as in the line ML0831265-01493. In this trial the new line PL1214418-73009 with combined HPPD and ACCase tolerance was planted in a row along with other various lines including the original donor line ML0831265-01493 (planted in a plot), ML0831266-03093, P1003, R0146 parent line for ACCase tolerance. The lines were all tested with the ACCase herbicides fluazifop at 0.5×, 1×, 2×, and 4× multiples of the label application rate (210 gmai/ha) and quizalofop at 0.5×, 1×, 2×, and 4× multiples of the label application rate (77 gmai/ha).

[3] = test system: line PL1214418M2-80048; assay: Herbicide tolerance of the combined HPPD and ACCase line; design: species or system rice; conditions: in vivo
From the text: An early maturing group of plants was harvested as early as possible and the seeds planted in the greenhouse to help quickly advance to the F4 generation. Selections on the F3 plants were made by molecular markers flanking the HPPD tolerance mutation and native tolerance the ACCase functional mutation. Homozygous plants for all the selected genomic regions were advanced to the F5 generation. The F5 seed was confirmed to carry tolerance to ACCase herbicides and the HPPD herbicide mesotrione. Among the F5 lines PL1214418M2-80048 was selected due to a high seed yield and being homozygous for the ACCase tolerance mutation at position G2096S, the HPPD tolerance mutation, and the HPPD tolerance native gene. Seed from the line PL1214418M2-80048 was deposited at the ATCC and given a deposit number PTA-121362 (see Table 8).
Individuals with tolerance to both mesotrione and ACCase herbicides were selfed to produce F3 families and further selected for other important agronomic characters. The F3 lines were selfed and purified to derive a new line or variety with dual resistance to mesotrione and ACCase herbicides. Such lines are highly valuable as the use of both herbicides provides more complete and broad-spectrum weed control. […]

[4] = test system: line P1003; assay: ACCase herbicide field trial; format: in vivo, rice; conditions: four weeks after application
Procedure: (§3) FIG. 3A-3B is a photograph of line ML0831266-03093 that in addition to resistance to HPPD herbicides also has enhanced resistance to ACCase herbicides. […] Picture taken four weeks after herbicide application.
(§4) During the process of showing equivalent resistance of the ACCase tolerance in the new line PL1214418M2-73009, the HPPD tolerant line ML0831266-03093 was also evaluated for response to ACCase tolerance by application of the ACCase herbicides fluazifop at 0.5×, 1×, 2×, and 4× multiples of the label application rate (210 gmai/ha) and quizalofop at 0.5×, 1×, 2×, and 4× multiples of the label application rate (77 gmai/ha). In the field trials the resistant HPPD line ML0831266-03093 was planted in a row adjacent to the parent line P1003. […] By combining the HPPD tolerance with the ACCase tolerance the newly developed line PL1214418M2-73009, or any other new line and other derived lines because resistance is heritable and can be bred into lines e.g. progeny may carry a higher tolerance to ACCase inhibiting herbicides than lines developed from only the ACCase inhibitor resistant line ML0831265-01493.

[5] = test system: HPPD tolerant line ML0831266-03093; assay: ACCase herbicide field trial; format: in vivo, rice; conditions: for resistance to ACCase inhibiting herbicides compared with line P1003: 0.5x to 4x of label rate (fluazifop 210 gmai/ha, quizalofop 77 gmai/ha)
Procedure: as §3, §4

[6] = test system: ACCase resistant line ML0831265-01493; assay: ACCase herbicide field trial; format: in vivo, rice; conditions: quizalofop 77 gm ai/ha
Procedure: as §1, §2
After screening a large mutant population, the line ML0831265-02283 also survived application of the ACCase herbicide quizalofop. The line was increased to obtain sufficient seed for larger trials to evaluate its tolerance to ACCase herbicides. […] Twenty one days after the herbicide was applied the plots were evaluated for percent injury caused to the rice based on control plots that had no herbicide application (FIG. 8). […]

[7] = test system: line ML0831265-02283; assay: ACCase herbicide field trial; format: in vivo, rice
From the text: After screening a large mutant population, the line ML0831265-02283 also survived application of the ACCase herbicide quizalofop. The line was increased to obtain sufficient seed for larger trials to evaluate its tolerance to ACCase herbicides. The tolerance to ACCase herbicides in line ML0831265-02283 was validated by planting in the field plots (5 feet by 10 feet) of the line, the non-mutant parent line R0146, a second non-mutant line P1003, and the ACCase tolerant line ML0831265-01493. The ACCase herbicide quizalofop was applied at the four leaf stage at 0.5×, 1×, 2×, and 4× multiples of the labeled rate (77 gmai/ha). Twenty one days after the herbicide was applied the plots were evaluated for percent injury caused to the rice based on control plots that had no herbicide application (FIG. 8). The data confirms the tolerance of line ML0831265-02283 and it may even carry more tolerance than line ML0831265-01493 as shown by less injury at the 2× and 4× rates of quizalofop.

SMILES | control of common grass weeds in rice [1] | tolerance to ACCase herbicide compared with donor line ML0831265-01493 [2] | tolerance to fluazifop ([2]; in vivo) | tolerance to the herbicide [3] | killing of rice plants ([4]; fluazifop alone 210 gmai/ha at initiation of tillering) | resistance to ACCase inhibiting herbicides compared with line P1003 [5] | grass weed control ([1]; quizalofop 77 gm ai/ha, prevalent grass weed) | injury of the rice [6] | injury compared with line ML0831265-01493 ([7]; 2x and 4x of the labeled rate 77 gmai/ha, four leaf stage, 21 days after application) | survival in the screening of the mutant population ([7]; in vivo) | survival after quizalofop ([4]; 77 gm ai/ha) | survival after quizalofop ([5]; 77 gm ai/ha, four weeks after application)
CC(Oc1ccc(Oc2ccc(C(F)(F)F)cn2)cc1)C(=O)O (stereo not drawn) [fluazifop] | good control | equivalent tolerance | tolerance | tolerance | no killing of the rice plants was observed | more resistance | – | – | – | – | – | –
CC(Oc1ccc(Oc2cnc3cc(Cl)ccc3n2)cc1)C(=O)O (stereo not drawn) [quizalofop] | good control | equivalent or better; also recorded: equivalent tolerance | – | – | – | more resistance | killed | not injured | less injury | survived | does not survive | surviving
